The values below come from ChEMBL document CHEMBL1147992, “Glaziovianin A, a new isoflavone, from the leaves of Ateleia glazioviana and its cytotoxic activity against human cancer cells” (Bioorg Med Chem Lett, 2007).

Activity calls are given as the source filed them. The calls are words filed in the database; no cut-off is given here.

In one experiment the test system is HL-60. Nature of the experiment: Cytotoxicity against human HL60 cells by MTT assay after 72 hrs. Format: functional, cell-based. Particulars: HL-60, 72 h. A general note: Tetrazolium dyes change colour on reduction, which living cells bring about.
The subject of a further experiment is SF-539. Nature of the experiment: Cytotoxicity against human SF539 cells by MTT assay after 72 hrs. As to conditions: SF-539, 72 h. Format: functional.
The test system of the next experiment is MKN-7. Kind of experiment: Cytotoxicity against human MKN7 cells by MTT assay after 72 hrs. The format is functional. Particulars: MKN-7, 72 h.
Another experiment concerns MDA-MB-231. Nature of the experiment: Cytotoxicity against human MDA-MB-231 cells by MTT assay after 72 hrs. The format is functional. As to conditions: MDA-MB-231, 72 h.
For another experiment, the system named is DMS-114. Nature of the experiment: Cytotoxicity against human DMS114 cells by MTT assay after 72 hrs. Particulars: DMS-114, 72 h. Format: functional.
Another experiment deals with SNB-78. Kind of experiment: Cytotoxicity against human SNB78 cells by MTT assay after 72 hrs. Format: functional. As to conditions: SNB-78, 72 h.
In another experiment the test system is U-251. Kind of experiment: Cytotoxicity against human U251 cells by MTT assay after 72 hrs. Format: functional. As to conditions: U-251, 72 h.
The test system of the next experiment is HCT-15. Nature of the experiment: Cytotoxicity against human HCT15 cells by MTT assay after 72 hrs. The format is functional. Particulars: HCT-15, 72 h.
A short description of experiment [1]: Cell cycle arrest in rat 3Y1 cells by accumulation at M phase at 3 uM after 18 hrs. The format is functional, cell-based.
Experiment [2] can be described thus: Cytotoxicity against human RXF631L cells by MTT assay after 72 hrs. The format is functional. Particulars: RXF 631, 72 h.
A further experiment deals with SNB-75. Kind of experiment: Cytotoxicity against human SNB75 cells by MTT assay after 72 hrs. The format is functional. Particulars: SNB-75, 72 h.
Another experiment relates to MKN-28. Nature of the experiment: Cytotoxicity against human MKN28 cells by MTT assay after 72 hrs. The format is functional. Particulars: MKN-28, 72 h.
A further experiment deals with 3Y1. Kind of experiment: Disruption of microtubules in rat 3Y1 cells at 1 uM after 18 hrs. The format is functional, cell-based.
The next experiment deals with HCC 2998. Nature of the experiment: Cytotoxicity against human HCC2998 cells by MTT assay after 72 hrs. The format is functional. As to conditions: HCC 2998, 72 h.
A further experiment has as its system NCI-H522. Nature of the experiment: Cytotoxicity against human NCIH522 cells by MTT assay after 72 hrs. Format: functional. As to conditions: NCI-H522, 72 h.
A further experiment concerns OVCAR-5. Nature of the experiment: Cytotoxicity against human OVCAR5 cells by MTT assay after 72 hrs. Format: functional. As to conditions: OVCAR-5, 72 h.
Experiment [3] can be described thus: Cytotoxicity against human BSY1 cells by MTT assay after 72 hrs. Format: functional. As to conditions: BSY-1, 72 h.
The test system of a further experiment is MCF7. Kind of experiment: Cytotoxicity against human MCF7 cells by MTT assay after 72 hrs. The format is functional. As to conditions: MCF7, 72 h.
The subject of a further experiment is KM12. Kind of experiment: Cytotoxicity against human KM12 cells by MTT assay after 72 hrs. The format is functional. As to conditions: KM12, 72 h.
The test system of a further experiment is NCI-H23. Nature of the experiment: Cytotoxicity against human NCIH23 cells by MTT assay after 72 hrs. The format is functional. As to conditions: NCI-H23, 72 h.
In the next experiment the test system is OVCAR-3. Kind of experiment: Cytotoxicity against human OVCAR-3 cells by MTT assay after 72 hrs. Format: functional. Particulars: OVCAR-3, 72 h.
In the next experiment the test system is HCT-116. Kind of experiment: Cytotoxicity against human HCT116 cells by MTT assay after 72 hrs. As to conditions: HCT-116, 72 h. Format: functional.
In the next experiment the test system is NCI-H460. Kind of experiment: Cytotoxicity against human NCIH460 cells by MTT assay after 72 hrs. The format is functional. Particulars: NCI-H460, 72 h.
The next experiment concerns DU-145. Nature of the experiment: Cytotoxicity against human DU145 cells by MTT assay after 72 hrs. The format is functional. As to conditions: DU-145, 72 h.
In a further experiment the test system is MKN-45. Kind of experiment: Cytotoxicity against human MKN45 cells by MTT assay after 72 hrs. Format: functional. Particulars: MKN-45, 72 h.
The next experiment has as its system SK-OV-3. Nature of the experiment: Cytotoxicity against human SK-OV3 cells by MTT assay after 72 hrs. The format is functional. Particulars: SK-OV-3, 72 h.
The nature of experiment [4]: Cytotoxicity against human HBC5 cells by MTT assay after 72 hrs. Format: functional. As to conditions: HBC5, 72 h.
A further experiment relates to SF-295. Nature of the experiment: Cytotoxicity against human SF295 cells by MTT assay after 72 hrs. The format is functional. As to conditions: SF-295, 72 h.
In a further experiment the test system is ACHN. Kind of experiment: Cytotoxicity against human ACHN cells by MTT assay after 72 hrs. Format: functional.
A further experiment concerns OVCAR-8. Kind of experiment: Cytotoxicity against human OVCAR8 cells by MTT assay after 72 hrs. As to conditions: OVCAR-8, 72 h. The format is functional.
In the next experiment the test system is DMS-273. Kind of experiment: Cytotoxicity against human DMS273 cells by MTT assay after 72 hrs. As to conditions: DMS-273, 72 h. Format: functional.
The subject of a further experiment is MKN-74. Nature of the experiment: Cytotoxicity against human MKN74 cells by MTT assay after 72 hrs. Particulars: MKN-74, 72 h. The format is functional.
The next experiment concerns St-4. Kind of experiment: Cytotoxicity against human St4 cells by MTT assay after 72 hrs. The format is functional. Particulars: St-4, 72 h.
The test system of another experiment is SF-268. Nature of the experiment: Cytotoxicity against human SF268 cells by MTT assay after 72 hrs. Format: functional. As to conditions: SF-268, 72 h.
Experiment [5] is described as follows: Cytotoxicity against human […] cells by MTT assay after 72 hrs. Format: functional.
Another experiment deals with A549. Kind of experiment: Cytotoxicity against human A549 cells by MTT assay after 72 hrs. Format: functional. Particulars: A549, 72 h.
Experiment [6] is described as follows: Cytotoxicity against human MKN1 cells by MTT assay after 72 hrs. Format: functional. As to conditions: MKN-1, 72 h.
The test system of the next experiment is OVCAR-4. Nature of the experiment: Cytotoxicity against human OVCAR4 cells by MTT assay after 72 hrs. The format is functional. Particulars: OVCAR-4, 72 h.
Experiment [7] in a line: Cytotoxicity against human HBC4 cells by MTT assay after 72 hrs. Format: functional. Particulars: HBC4, 72 h.
The subject of another experiment is PC-3. Kind of experiment: Cytotoxicity against human PC3 cells by MTT assay after 72 hrs. Format: functional. Particulars: PC-3, 72 h.
A further experiment deals with HT-29. Nature of the experiment: Cytotoxicity against human HT29 cells by MTT assay after 72 hrs. As to conditions: HT-29, 72 h. Format: functional.
The subject of another experiment is LOX IMVI. Kind of experiment: Cytotoxicity against human LOX-IMVI cells by MTT assay after 72 hrs. The format is functional.

In the experiment with HL-60, `COc1cc2occ(-c3cc4c(cc3OC)OCO4)c(=O)c2cc1OC` returned an IC50 of 16000 nM.

The molecule `COc1ccc(-c2coc3cc(OC)c(OC)cc3c2=O)cc1OC` showed an IC50 in the experiment on HL-60 of 23000 nM.

Molecule `COc1cc(OC)c(-c2coc3cc(OC)c(OC)cc3c2=O)cc1OC` yielded an IC50 in the experiment on HL-60 of 8500 nM.

With `COc1cc2occ(-c3cc(OC)c4c(c3OC)OCO4)c(=O)c2cc1OC` [GLAZIOVIANIN A], the GI50 is 320 nM in the experiment with SF-539; 1510 nM in the experiment on MKN-7; 1100 nM in the experiment on MDA-MB-231; 200 nM in the experiment with DMS-114; 10700 nM with SNB-78; 790 nM with U-251. Also, the concentration for 50% growth inhibition (GI50) in the experiment on HCT-15 worked out at 290 nM; in experiment [2], 510 nM; in the experiment on SNB-75, 630 nM; in the experiment on MKN-28 it was 450 nM; with HCC 2998, 3020 nM; with NCI-H522, 230 nM. Besides, the GI50 worked out at 2190 nM in the experiment with OVCAR-5; 50 nM in [3]; 390 nM in the experiment on MCF7; 320 nM with KM12; 5130 nM in the experiment on NCI-H23; 130 nM with OVCAR-3. Also, the GI50 came to 560 nM in the experiment with HCT-116; 410 nM in the experiment on NCI-H460; 590 nM in the experiment on DU-145; 680 nM with MKN-45; 280 nM with SK-OV-3; 470 nM in experiment [4]. The GI50 is 340 nM in the experiment with SF-295; 620 nM with ACHN; 1510 nM in the experiment on OVCAR-8; 130 nM in the experiment on DMS-273; 390 nM in the experiment on MKN-74; 15100 nM with St-4. Moreover, the GI50 with SF-268 is 830 nM; in experiment [5], 580 nM; in the experiment on A549 it was 830 nM; in experiment [6], 690 nM; in the experiment with OVCAR-4 it was 10500 nM; in [7], 1950 nM. Further, the GI50 turned out to be 100 nM in the experiment on PC-3, 460 nM in the experiment with HT-29 and 870 nM in the experiment with LOX IMVI. In addition, the result (in [1]; with 3Y1) was Active. Besides, in the experiment with HL-60, the concentration for half-maximal inhibition (IC50) was found to be 290 nM.

What is called IC50 is the point on the concentration scale where inhibition reaches its midpoint. A lower IC50 goes with greater potency in that assay. The term GI50 denotes the concentration at which growth is held to half of that of the control. A lower GI50 goes with greater sensitivity of the cells.
